This note sets out measurements from patent US10774051B2, “6-membered heterocyclic derivatives and pharmaceutical composition comprising the same” (Shionogi & Co., Ltd., priority 2015, dated 2020).

Where only a bound is given, the exact number is not on record here.

In the first assay the target is human P2X7 receptor (Homo sapiens, UniProt Q99572, R270H/Y155H). The assay can be described thus: Evaluation of human P2X7 receptor inhibitory activity (Yo-Pro uptake, BzATP stimulation, FLIPR TETRA). The assay is classed as cell-based. The settings on record: 1321N1 cells stably expressing human P2X7 receptor; BzATP stimulation, Yo-Pro uptake; read-out: IC50 (antagonistic activity for the human P2X7 receptor). The procedure, abridged:
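1321N1 cells stably expressing human P2X7 (T606C/G952A SNP variant), in HBSS buffer pH 7.4-7.5 with Yo-Pro, stimulated with BzATP; compound added 8 min after agonist. Fluorescence followed for 20 min on FLIPR; max-minus-min change gave % inhibition, IC50 by logistic fit.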
With `COc1cn(Cc2cc(F)cc(F)c2)c(Nc2cccc(SC)c2C)nc1=O` [Compound I-0550], the half-maximal inhibitory concentration (IC50) stood at 2 nM.
The same measure, in the same setting: then `COc1cn(Cc2cc(F)c(F)c(F)c2)c(Oc2cc(-c3ncco3)ccc2C)nc1=O` [Compound I-0942], with 230 nM; and `COc1cn(Cc2ccc(F)c(Cl)c2)c(Nc2cc3ncccc3cc2C)nc1=O` [Compound I-0771], with 43 nM.
For the molecule `Cc1cc2c(cc1Nc1nc(=O)c(Cl)cn1Cc1ccccc1)OCCO2` [Compound I-0370], the IC50 was determined as 47 nM.
With `COc1cn(Cc2ccccc2)c(Nc2cncc(Cl)c2C)nc1=O` [Compound I-0185], the IC50 is 270 nM.

Still in this assay, the particulars now being: 1321N1 cells stably expressing human P2X7 receptor; BzATP stimulation, Yo-Pro uptake; read-out: IC50 (antagonistic activity for the human P2X7 receptor), class symbol.
For `COc1ccc(Cl)c(Nc2nc(=O)c(OC)cn2Cc2ccc(F)c(Cl)c2)c1` [Compound I-0544], the IC50 lay within 10 to 100 nM.
Take `CCc1c(Nc2nc(=O)c(OC)cn2Cc2ccc(F)c(Cl)c2)cc(OC)cc1OC` [Compound I-0363]: the IC50 is below 10 nM.
Take `CCc1cc(OC)c(OC)cc1Nc1nc(=O)c(F)cn1Cc1cccc(Cl)c1` [Compound I-0350]: the IC50 was below 10 nM.
Same read-out and setting: then `CCc1ccc(Nc2nc(=O)c(OC)cn2Cc2ccccc2)c(CC)c1` [Compound I-0210], with 10 to 100 nM; and `COc1cn(Cc2ccccc2Cl)c(Nc2cc(C)c(Cl)cc2C)nc1=O` [Compound I-0170], with 100 to 500 nM; and `COc1cn(Cc2ccccc2)c(Nc2cccc(-n3cccc3)c2C)nc1=O` [Compound I-0091], with 100 to 500 nM.
On the same count and under the same terms, in the case of `Cc1ccc(-c2nnco2)cc1Nc1nc(=O)c(F)cn1Cc1ccc(F)c(F)c1` [Compound I-0380] it was 10 to 100 nM.
Same read-out and setting: then `CCc1ccc(Cl)cc1Nc1nc(=O)c(OC)cn1Cc1ccc(F)c(Cl)c1` [Compound I-0389], with below 10 nM; and `CCOc1cc(C)c(Nc2nc(=O)c(OC)cn2Cc2ccccc2)cc1C` [Compound I-0206], with 10 to 100 nM; and `COc1cn(Cc2ccccc2)c(NCc2ccccc2N(C)C)nc1=O` [Compound I-0067], with 500 to 1000 nM.
Turning to `CCc1cc2c(cc1Nc1nc(=O)c(OC)cn1Cc1ccccc1)CCC2` [Compound I-0116], the IC50 was below 10 nM.
`COc1cc(C)cc(Nc2nc(=O)c(OC)cn2Cc2ccc(F)cc2)c1C` [Compound I-0560]: the IC50 is below 10 nM.
With `Cc1ccc(N2CCCS2(=O)=O)cc1Nc1nc(=O)c(Cl)cn1Cc1ccccc1` [Compound I-0313], the 50% inhibitory concentration (IC50) lay within 10 to 100 nM.
Take `COc1cn(Cc2ccc(F)c(Cl)c2)c(Nc2cc(SC(F)(F)F)ccc2C)nc1=O` [Compound I-0546]: the IC50 was in the range of 10 to 100 nM.
The same measure, in the same setting: in the case of `Cc1c(Cl)cccc1Nc1nc(=O)c(-c2ccccc2)cn1Cc1ccccc1` [Compound I-0028] it was 500 to 1000 nM; in that of `COc1cc(C)c(Nc2nc(=O)c(F)cn2Cc2cccc(Cl)c2)cc1OC` [Compound I-0308], below 10 nM.
For `COc1cn(Cc2ccccc2)c(Nc2cccc(Cl)c2Cl)nc1=O` [Compound I-0096], the IC50 lay within 10 to 100 nM.
In the case of `COc1cn(Cc2ccccc2)c(Nc2ccc(OC(C)C)cc2C)nc1=O` [Compound I-0191], the IC50 fell in the range of 100 to 500 nM.
Still for that read-out and setting: in the case of `COc1cc(C)c(Nc2nc(=O)c(OC)cn2Cc2cccc(F)c2)cc1OC` [Compound I-0274] it was below 10 nM; in that of `COc1cn(Cc2ccc(F)c(Cl)c2)c(Nc2cc3c(cc2C)OCCO3)nc1=O` [Compound I-0292], 10 to 100 nM; in that of `COc1cn(Cc2ccc(F)c(Cl)c2)c(Nc2cccc(SC)c2C)nc1=O` [Compound I-0430], below 10 nM.
Regarding `Cc1c(Cl)cccc1Nc1nc(=O)c(C(=O)NCCS(C)(=O)=O)cn1Cc1ccccc1` [Compound I-0077], the IC50 was in the range of 10 to 100 nM.
On to `COc1cn(Cc2ccc(F)c(Cl)c2)c(Nc2cccc3c(=O)[nH]ccc23)nc1=O` [Compound I-0398], for which the IC50 was 10 to 100 nM.
As for `Cc1c(Cl)cccc1Nc1nc(=O)c(OCC(F)(F)F)cn1Cc1ccccc1` [Compound I-0016], the IC50 was in the range of 10 to 100 nM.
In the case of `COc1cc(C)c(Nc2nc(=O)c(Cl)cn2Cc2ccc(F)cc2)cc1OC` [Compound I-0406], the IC50 was below 10 nM.

Still in this assay, the particulars now being: antagonistic activity for the human P2X7 receptor; read-out: IC50.
Take `CCc1ccc(OC)cc1Nc1nc(=O)c(F)cn1Cc1cc(F)c(F)c(F)c1` [Compound I-1191]: the IC50 was below 10 nM.
Turning to `COc1cn(Cc2ccc(F)c(C(F)(F)F)c2)c(Nc2cccc(Cl)c2C)nc1=O` [Compound I-0635], the IC50 was in the range of 10 to 100 nM.
Same read-out and setting: then `COc1cn(Cc2cc(F)cc(F)c2)c(Nc2ccc3nc(C)sc3c2C)nc1=O` [Compound I-0860], with 10 to 100 nM; and `CCOc1cn(Cc2ccc(F)c(Cl)c2)c(Nc2cc(OC)c(OC)cc2C)nc1=O` [Compound I-0795], with below 10 nM.
Still for that read-out and setting: then `Cc1cc(Nc2nc(=O)c(F)cn2Cc2cc(F)c(F)c(F)c2)c(C)cc1Cl` [Compound I-1207], with below 10 nM; and `COc1cn(Cc2ccc(F)c(Cl)c2)c(Nc2cc(-c3cccn(C)c3=O)c(F)cc2C)nc1=O` [Compound I-0591], with 10 to 100 nM.
The same measure, in the same setting: in the case of `COc1cn(Cc2cc(F)cc(Cl)c2)c(Nc2cc3c(cc2C)OCCO3)nc1=O` [Compound I-0710] it was 10 to 100 nM.
Take `COc1cn(Cc2ccc(F)c(Cl)c2)c(Nc2cc3c(cc2C)OC(F)(F)C(F)(F)O3)nc1=O` [Compound I-0823]: the half-inhibitory concentration (IC50) was 100 to 500 nM.
Same read-out and setting: then `COc1cn(Cc2ccc(F)c(Cl)c2)c(Nc2ccc3ncsc3c2C)nc1=O` [Compound I-0856], with 10 to 100 nM; and `COc1nc(C)c(Nc2nc(=O)c(F)cn2Cc2ccc(F)c(Cl)c2)cc1C` [Compound I-1004], with below 10 nM; and `COc1cc(C)c(Nc2nc(=O)c(OC)cn2Cc2ccccc2)cc1F` [Compound I-0718], with 10 to 100 nM.
Take `Cc1cc2[nH]ccc2cc1Nc1nc(=O)c(F)cn1Cc1ccc(F)c(F)c1` [Compound I-1043]: the IC50 was below 10 nM.
Still for that read-out and setting: in the case of `COc1ccc(Nc2nc(=O)c(C)nn2Cc2cc(F)c(F)c(F)c2)c(C)c1` [Compound I-1277] it was below 10 nM; in that of `COc1cc(C)c(Nc2nc(=O)ccn2Cc2ccc(F)c(Cl)c2)cc1OC` [Compound I-1159], below 10 nM.
Still for that read-out and setting: then `COc1cn(Cc2cc(F)c(F)c(F)c2)c(Nc2cc(Oc3ccccn3)ccc2C)nc1=O` [Compound I-0899], with below 10 nM.
Take `COc1cn(Cc2cc(F)cc(F)c2)c(Nc2cc(-c3nnco3)ccc2C)nc1=O` [Compound I-0599]: the IC50 was in the range of 10 to 100 nM.
Consider `O=c1nc(Nc2cccc3c(O)cccc23)n(Cc2ccc(F)c(Cl)c2)cc1F` [Compound I-1116], for which the IC50 was below 10 nM.
On the same count and under the same terms, then `COc1cc(C)c(Nc2nc(=O)c(C)nn2Cc2cc(F)c(F)c(F)c2)cc1OC` [Compound I-1266], with 10 to 100 nM; and `COc1cn(Cc2ccc(F)c(Cl)c2)c(Nc2cc(C(F)(F)F)ccc2C)cc1=O` [Compound I-0956], with 100 to 500 nM.
As to `CCOC(=O)c1cn(Cc2cc(F)c(F)c(F)c2)c(Nc2ccc(OC(F)F)cc2C)nc1=O` [Compound I-1121], the IC50 was 100 to 500 nM.
Still for that read-out and setting: then `CCOc1ccc(Nc2nc(=O)c(OC)cn2Cc2cc(F)cc(F)c2)c(C)c1` [Compound I-0680], with 10 to 100 nM; and `COc1ccc(Nc2nc(=O)c(Cl)cn2Cc2ccc(F)c(Cl)c2)c(C)c1` [Compound I-0843], with 10 to 100 nM.
For the molecule `COc1ccc(Nc2nc(=O)c(F)cn2Cc2cc(F)c(F)c(F)c2)c(OC)c1C` [Compound I-1243], the 50% inhibitory concentration (IC50) is below 10 nM.
`COc1cc(Nc2nc(=O)c(F)cn2Cc2cc(F)c(F)c(F)c2)c(C)cc1F` [Compound I-1058]: the half-maximal inhibitory concentration (IC50) was below 10 nM.
The same measure, in the same setting: in the case of `Cc1c(Nc2nc(=O)ccn2Cc2ccc(F)c(Cl)c2)ccc2[nH]ccc12` [Compound I-1170] it was below 10 nM; in that of `O=c1nc(Nc2cccc3c2CCCO3)n(Cc2cc(F)c(F)c(F)c2)cc1F` [Compound I-1173], below 10 nM; in that of `COc1cc(C)c(Nc2nc(=O)c(OC)cn2Cc2cccc(F)c2)cc1Cl` [Compound I-0614], below 10 nM.
Still for that read-out and setting: in the case of `COc1cn(Cc2ccccc2)c(Nc2cc(C)c(OC(F)(F)F)cc2C)nc1=O` [Compound I-0922] it was below 10 nM; in that of `COc1cn(Cc2cc(F)cc(F)c2)c(Nc2cc(-c3cccn(C)c3=O)c(F)cc2C)nc1=O` [Compound I-0592], 10 to 100 nM; in that of `CCOc1cn(Cc2ccccc2)c(Nc2cc(OC)c(OC)cc2CC)nc1=O` [Compound I-0893], below 10 nM.
On the same count and under the same terms, then `CCOC(=O)c1cn(Cc2cc(F)c(F)c(F)c2)c(Nc2cc(OC)c(F)cc2C)nc1=O` [Compound I-1122], with 10 to 100 nM; and `COc1nc(C)c(Nc2nc(=O)c(F)cn2Cc2ccc(F)c(F)c2)cc1C` [Compound I-1008], with below 10 nM.
Consider `Cc1ccc(CO)cc1Nc1nc(=O)c(F)cn1Cc1cc(F)c(F)c(F)c1` [Compound I-1015], for which the 50% inhibitory concentration (IC50) was below 10 nM.
Still for that read-out and setting: in the case of `CCOc1ccc(Nc2nc(=O)c(OC)cn2Cc2ccc(F)c(Cl)c2)c(C)c1` [Compound I-0679] it was below 10 nM; in that of `CCOc1cn(Cc2ccccc2)c(Nc2cc(C)cc(OC)c2C)nc1=O` [Compound I-0717], below 10 nM.
On the same count and under the same terms, then `CCc1ccc(C)c(Nc2nc(=O)c(F)cn2Cc2cc(F)c(F)c(F)c2)c1` [Compound I-1226], with below 10 nM.
Same read-out and setting: then `COc1cn(Cc2cc(F)c(F)c(F)c2)c(Nc2cc(-n3cccc3)ccc2C)nc1=O` [Compound I-0894], with below 10 nM; and `Cc1nc2cc(C)c(Nc3nc(=O)c(F)cn3Cc3ccc(F)c(F)c3)cc2s1` [Compound I-1010], with below 10 nM; and `COc1cn(Cc2ccc(F)c(F)c2)c(Nc2cc(-c3ccnn3C)ccc2C)nc1=O` [Compound I-0783], with 10 to 100 nM.
Turning to `O=c1nc(Nc2cccc3c(O)cccc23)n(Cc2cc(F)c(F)c(F)c2)cc1F` [Compound I-1105], the IC50 is below 10 nM.
With `COc1cn(Cc2ccc(F)c(F)c2)c(Nc2cc3ncccc3cc2C)nc1=O` [Compound I-0772], the IC50 was 10 to 100 nM.

The IC50 is the concentration at which inhibition is half-maximal.
